Consider one molecule from patent US7932031B2, “Methods for determining sensitivity to microtubule-stabilizing agents comprising ixabepilone by measuring the level of estrogen receptor 1” (Bristol-Myers Squibb Company, priority 2004, dated 2011).

Structures are written as SMILES.

This experiment relates to invasive stage IIA-IIIB breast adenocarcinoma. Description: CA163-080 exploratory genomic phase II study, ixabepilone as neoadjuvant treatment, pathologic complete response (Sataloff classification). The format is in vivo, human. The settings on record: breast cancer patients, 40 mg/m^2 3-hour infusion on Day 1, up to four 21-day cycles. The procedure:
CA163-080 is an exploratory genomic phase II study that was conducted in breast cancer patients who received ixabepilone as a neoadjuvant treatment. The primary objective of this study was to identify predictive markers of response to ixabepilone through gene expression profiling of pre-treatment breast cancer biopsies. Patients with invasive stage IIA-IIIB breast adenocarcinoma (tumor size≧3 cm diameter) received 40 mg/m^2 ixabepilone as a 3-hour infusion on Day 1 for up to four 21-day cycles, followed by surgery within 3-4 weeks of completion of chemotherapy. A total of 164 patients were enrolled in this study. Biopsies for gene expression analysis were obtained both pre- and post-treatment. […]
Pathological response was assessed using the Sataloff classification system (D. Sataloff et al., J. Am. Coll. Surg., 180(3):297-306 (1995)) and used as an end point for the pharmacogenomic analysis. The pathologic response was evaluated in the primary tumor site at the end of treatment and prior to surgery by assessing histologic changes compared with baseline as following: At the primary tumor site, cellular modifications were evaluated in both the infiltrating tumoral component and in the possible ductal component, to determine viable residual infiltrating component (% of total tumoral mass); residual ductal component (% of total tumoral mass); the mitotic index. […]

Turning to `C/C(=C\c1csc(C)n1)[C@@H]1C[C@@H]2O[C@]2(C)CCC[C@H](C)[C@H](O)[C@@H](C)C(=O)C(C)(C)[C@@H](O)CC(=O)N1` [ixabepilone], the pCR response rate reads like this: (the other sites (excluding Russian sites 16, 24 and 25)) 19.8%; (tumors from the three Russian sites (16, 24 and 25)) 17.2%.
